# In patent US20090291964A1, “Potentiators of Antibacterial Activity” (priority 2003, published 2009):
# What was measured:
# Format in all cases: cell-based
# [1] = test system: S. aureus SA-K2068 (non-NorA multidrug efflux pump overproducing); assay: microbe, parasite or virus in culture
# Excerpt: (§1) A variety of strains may be used in these experiments, including, but not limited to, S. aureus ATCC 29213, E. faecalis ATCC 29212, and S. pneumoniae, S. aureus strains SA-1199, SA-1199B, SA-8325-4, and SA-K2068. S. aureus ATCC 29213, E. faecalis ATCC 29212, and S. pneumoniae ATCC 10015 were obtained from the American Type Culture Collection (Manassas, Va.). S. aureus strains SA-1199 (clinical isolate, susceptible), SA-1199B (SA-1199, NorA overproducing, also has A116E GrlA mutation), SA-8325-4 (NCTC 8325 cured of prophages), SA-K2068 (SA-8325-4, non-NorA multidrug efflux pump overproducing mutation) were obtained from Glenn Kaatz (Kaatz et al., “Identification and characterization of a novel efflux-related multidrug resistance phenotype in Staphylococcus aureus”, J. Antimicrob. Chemother. 50:833-838 (2002); 1993; Kaatz et al., “Phenothiazines and thioxanthenes inhibit multidrug efflux pump activity in Staphylococcus aureus”, Antimicrob. Agents Chemother. 47:719-726, Kaatz et al., “Efflux-mediated fluoroquinolone resistance in Staphylococcus aureus. Antimicrob. Agents Chemother.”, 37:1086-1094, 1993)).
# (§2) 3% sterile laked horse blood (Quad Five, Ryegate, Mont.) was added to assays for E. faecalis and S. Pneumoniae. A final concentration of 1% DMSO was present in all assays.
# (§3) Recent more hydrophobic fluoroquinolones such as gatifloxacin and moxifloxacin are less well recognized by NorA; however, recently one other pump in S. aureus has been described which also recognizes hydrophobic fluoroquinolones (Kaatz et al. 2002, supra). To investigate the potential of A-106 and C-9 to block the efflux of several fluoroquinolones in cells with constituitively over-expressed efflux pumps, we used S. aureus strains SA-1199B and K2068 (Table 3). […] Kaatz et al., “Phenothiazines and thioxanthenes inhibit multidrug efflux pump activity in Staphylococcus aureus”, Antimicrob. Agents Chemother. 47:719-726 (2003).
# S. aureus ATCC 29213 [2] = assay: MIC by NCCLS microdilution, antibacterial agents with and without EPI
# Outline: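 Efflux pump inhibitors were combined at fixed concentrations with antibiotics from several classes and tested against Staphylococcus aureus ATCC 29213 to compare minimum inhibitory concentrations with and without inhibitor. The inhibitor level was tied to its minimal effective concentration for ethidium bromide, a general efflux pump substrate. All assays contained a final concentration of 1% DMSO.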
# S. pneumoniae ATCC 10015 = assay: MIC by NCCLS microdilution, EtBr/EPI with and without EPI
# Method: as §2
# (§4) EtBr is a general substrate for many different efflux pumps in bacteria. Markham et al., “Multiple Novel Inhibitors of the NorA Multidrug Transporter of Staphylococcus aureus”, Antimicrob. Agents Chemother. 43:2404-2408 (1999). Since EtBr is a non-specific DNA intercalator, the only known mechanism of resistance to EtBr is via efflux. Markham et al., “Multiple Novel Inhibitors of the NorA Multidrug Transporter of Staphylococcus aureus”, Antimicrob. Agents Chemother. 43:2404-2408 (1999).
# E. faecalis ATCC 29212 = assay: as above
# Method: as §2, §4
# S. aureus ATCC 29213 [3] = assay: Minimal effective concentration (MEC) of EPI for gatifloxacin; conditions: lowest amount of EPI which produces the maximum effect on the MIC of gatifloxacin
# Method: The MEC was determined as the minimal concentration of EPI that produced the maximal reduction in substrate MIC.
# Since any given compound may be recognized by an unknown number of efflux pumps in a particular organism, we reasoned that the MEC of A-106 and C-9 should vary for different antibiotics. Also, the MEC of A-106 and C-9 should vary with the degree of efflux expression in a given strain. […] This was confirmed with two other wild type strains, SA-8325-4 and SA-1199 (Table 3).
# [4] = test system: S. aureus SA-1199B (NorA overproducing); assay: MIC of fluoroquinolones with and without EPI
# Excerpt: as §1, §2, §3
# S. aureus SA-8325-4 = assay: MIC of fluoroquinolones with and without EPI; conditions: S. aureus SA-8325-4; EPI at 4X the MEC for EtBr, VX-710 at 100 μg/ml
# Excerpt: as §1, §2
# [5] = test system: S. aureus SA-1199 (clinical isolate, susceptible); assay: MIC of fluoroquinolones with and without EPI; conditions: S. aureus SA-1199; EPI at 4X the MEC for EtBr, VX-710 at 100 μg/ml
# Excerpt: as §1, §2
# [6] = K2068, EPIs at 4 times MEC for EtBr, A-106 at 100 μg/ml
# [7] = S. aureus K2068, EPI at 4X the MEC for EtBr, VX-710 at 100 μg/ml
# [8] = S. aureus ATCC 29213, EPI at 4X the MEC for EtBr, VX-710 at 100 μg/ml
# [9] = S. aureus ATCC 29213, EPIs used at the MEC, except VX-710 at 100 μg/ml
# [10] = S. pneumoniae ATCC 10015, EPIs used at the MEC, except VX-710 at 100 μg/ml
# [11] = E. faecalis ATCC 29212, EPIs used at the MEC, except VX-710 at 100 μg/ml
# [12] = S. aureus SA-1199B, EPI at 4X the MEC for EtBr, VX-710 at 100 μg/ml
# [13] = SA-1199B, EPIs at 4 times MEC for EtBr, A-106 at 100 μg/ml
compound,measurement,setting,value
COc1cc(C(=O)C(=O)N2CCCC[C@H]2C(=O)OC(CCCc2cccnc2)CCCc2cccnc2)cc(OC)c1OC [A-106],reduction of MIC of ciprofloxacin,[1]; [6],4 fold
same,reduction of MIC of gatifloxacin,[1]; [6],2 fold
same,reduction of MIC of levofloxacin,[1]; [6],2 fold
same,reduction of MIC of norfloxacin,[1]; [6],2 fold
same,MIC of gatifloxacin with EPI,[1]; S. aureus K2068 (nonNorA pump overproducer) (Table 4),0.25 µg/mL
same,MIC of EtBr with EPI,[1]; [7],0.4 µg/mL
same,MIC of ciprofloxacin with EPI,[1]; [7],0.5 µg/mL
same,MIC of gatifloxacin with EPI,[1]; [7],0.25 µg/mL
same,MIC of gentamicin with EPI,[1]; [7],0.063 µg/mL
same,MIC of levofloxacin with EPI,[1]; [7],0.5 µg/mL
same,MIC of norfloxacin with EPI,[1]; [7],1 µg/mL
same,Fold-reduction in MIC,"[1]; gatifloxacin, S. aureus K2068 (nonNorA pump overproducer)",4
same,MIC of gatifloxacin with EPI,S. aureus ATCC 29213 [2]; S. aureus ATCC 29213 (Table 4),0.125 µg/mL
same,"effect on the MICs of gatifloxacin, erythromycin, azithromycin, chloramphenicol, ceftriaxone, and linezolid","S. aureus ATCC 29213 [2]; S. aureus ATCC 29213, Table 2",No effect
same,MIC of EPI,"S. aureus ATCC 29213 [2]; S. aureus ATCC 29213, EPI alone",>100 µg/mL
same,MIC of EtBr with EPI,S. aureus ATCC 29213 [2]; [8],0.2 µg/mL
same,MIC of ciprofloxacin with EPI,S. aureus ATCC 29213 [2]; [8],0.063 µg/mL
same,MIC of gatifloxacin with EPI,S. aureus ATCC 29213 [2]; [8],0.063 µg/mL
same,MIC of gentamicin with EPI,S. aureus ATCC 29213 [2]; [8],0.125 µg/mL
same,MIC of levofloxacin with EPI,S. aureus ATCC 29213 [2]; [8],0.125 µg/mL
same,MIC of norfloxacin with EPI,S. aureus ATCC 29213 [2]; [8],0.125 µg/mL
same,Fold-reduction in EtBr MIC,S. aureus ATCC 29213 [2]; [9],31
same,MIC of EtBr with EPI,S. aureus ATCC 29213 [2]; [9],0.2 µg/mL
same,reduction of the MIC of EtBr,"S. aureus ATCC 29213 [2]; S. aureus wild type, EPI up to 100 μg/ml, data not shown",30 fold
same,Fold-reduction in MIC,"S. aureus ATCC 29213 [2]; gatifloxacin, S. aureus ATCC 29213",1
same,effect of EPI on the MIC of gatifloxacin,S. aureus ATCC 29213 [2]; wild type strain ATCC 29213,unaffected
same,MIC of EPI,"S. pneumoniae ATCC 10015; S. pneumoniae ATCC 10015, EPI alone",>100 µg/mL
same,Fold-reduction in EtBr MIC,S. pneumoniae ATCC 10015; [10],≧16
same,MIC of EtBr with EPI,S. pneumoniae ATCC 10015; [10],≦0.125 μg/ml
same,intrinsic antibacterial activity of EPI,"S. pneumoniae ATCC 10015; at 100 μg/ml, S. pneumoniae",no intrinsic antibacterial activity
same,MIC of EPI,"E. faecalis ATCC 29212; E. faecalis ATCC 29212, EPI alone",>100 µg/mL
same,Fold-reduction in EtBr MIC,E. faecalis ATCC 29212; [11],8
same,MIC of EtBr with EPI,E. faecalis ATCC 29212; [11],0.8 µg/mL
same,intrinsic antibacterial activity of EPI,"E. faecalis ATCC 29212; at 100 μg/ml, E. faecalis",no intrinsic antibacterial activity
same,MEC,S. aureus ATCC 29213 [3],>100 µg/mL
same,MIC of gatifloxacin with EPI,[4]; S. aureus SA-1199B (NorA overproducer) (Table 4),0.25 µg/mL
same,MIC of EtBr with EPI,[4]; [12],0.4 µg/mL
same,MIC of ciprofloxacin with EPI,[4]; [12],0.5 µg/mL
same,MIC of levofloxacin with EPI,[4]; [12],0.5 µg/mL
same,MIC of norfloxacin with EPI,[4]; [12],2 µg/mL
same,reduction of MIC of ciprofloxacin,[4]; [13],2 fold
same,reduction of MIC of gatifloxacin,[4]; [13],2 fold
same,reduction of MIC of levofloxacin,[4]; [13],1 fold
same,reduction of MIC of norfloxacin,[4]; [13],8 fold
same,Fold-reduction in MIC,"[4]; gatifloxacin, S. aureus SA-1199B (NorA overproducer)",2
same,MIC of EtBr with EPI,S. aureus SA-8325-4,<0.1 µg/mL
same,MIC of ciprofloxacin with EPI,S. aureus SA-8325-4,0.125 µg/mL
same,MIC of gatifloxacin with EPI,S. aureus SA-8325-4,0.125 µg/mL
same,MIC of gentamicin with EPI,S. aureus SA-8325-4,0.063 µg/mL
same,MIC of levofloxacin with EPI,S. aureus SA-8325-4,0.25 µg/mL
same,MIC of norfloxacin with EPI,S. aureus SA-8325-4,0.25 µg/mL
same,MIC of EtBr with EPI,[5],0.2 µg/mL
same,MIC of ciprofloxacin with EPI,[5],0.063 µg/mL
same,MIC of gatifloxacin with EPI,[5],0.063 µg/mL
same,MIC of gentamicin with EPI,[5],0.125 µg/mL
same,MIC of levofloxacin with EPI,[5],0.125 µg/mL
same,MIC of norfloxacin with EPI,[5],0.125 µg/mL
